Assay [1] has as its system chloroquine resistant P. falciparum parasites (strain Dd2). The assay is described as follows: Parasite growth inhibition assay in human red blood cells (flow cytometry, acridine orange). Format: cell-based. The conditions noted are these: Plasmodium falciparum, Erythrocyte. As to the method: The chloroquine resistant P. falciparum parasites (strain Dd2) were cultured in de-identified, IRB-exempt human red blood cells (RBCs) obtained from the American Red Cross and parasite cultures were maintained as described. Parasitaemia (percentage of total RBCs infected) was measured by flow cytometry on an Attune NxT (ThermoFisher) by nucleic-acid staining of cultured RBCs with phosphate-buffered saline (PBS) containing 0.8 µg ml^−1 acridine orange. We began by determining percent growth inhibition at single compound dose (20 µM) for the 102 non-toxic compounds. […] The experiments were initiated with a starting parasitaemia of ∼1% and parasitaemia was measured 72 and 96 h post compound addition. Growth was normalised to parasite cultures with carrier only (DMSO).
(§1) We tested the ability of the 102 compounds to kill P. falciparum parasites cultured in human red blood cells. Due to the number of compounds, we used a single inhibitor concentration of 20 µM and performed experiments in triplicate. […] These compounds were then tested in a dose-response format against chloroquine resistant P. falciparum parasites (Dd2) and the resulting data were fit to a sigmoidal growth inhibition curve to determine EC50 values (Figure 5, Table 2). […] Finally, to determine if the compounds were killing the parasites solely via apicoplast disruption, the dose-response curves were also performed with 1 mM isopentylpyrophosphate (IPP) in the growth media (Table 2). […] Very little is known regarding mitochondrial DNA replication in P. falciparum; however, signal sequence identification algorithms have predicted that the other bacterial A-family DNA polymerase residing in P. falciparum is targeted to the mitochondria (PF3D7_0625300)[29]. […] We are currently in the process of cloning and expressing this putative mitochondrial DNA polymerase to determine the effect of these compounds on its activity.
A general note: Flow cytometry measures light scatter and fluorescence of single cells or particles in a stream.

Assay [2] concerns the target T1, P. berghei apicoplast DNA polymerase (Pb-apPOL) (Plasmodium berghei, UniProt A0A509ALK1).
T1 sequence (A0A509ALK1 1182-1809): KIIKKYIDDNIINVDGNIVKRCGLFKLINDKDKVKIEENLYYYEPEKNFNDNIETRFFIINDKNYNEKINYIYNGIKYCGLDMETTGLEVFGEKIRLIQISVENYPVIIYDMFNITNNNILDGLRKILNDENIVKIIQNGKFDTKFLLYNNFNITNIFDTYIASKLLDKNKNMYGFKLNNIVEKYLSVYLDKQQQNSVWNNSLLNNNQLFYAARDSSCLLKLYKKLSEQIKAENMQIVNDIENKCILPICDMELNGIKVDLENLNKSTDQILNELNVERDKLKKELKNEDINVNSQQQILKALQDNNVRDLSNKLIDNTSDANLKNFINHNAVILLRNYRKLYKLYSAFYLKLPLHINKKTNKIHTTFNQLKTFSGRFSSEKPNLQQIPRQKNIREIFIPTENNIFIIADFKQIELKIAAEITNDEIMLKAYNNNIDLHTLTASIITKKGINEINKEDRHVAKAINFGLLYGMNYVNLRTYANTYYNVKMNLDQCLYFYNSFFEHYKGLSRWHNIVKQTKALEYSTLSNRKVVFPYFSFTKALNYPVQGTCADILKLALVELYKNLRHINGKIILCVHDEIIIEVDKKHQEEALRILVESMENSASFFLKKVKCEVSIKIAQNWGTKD
As to the kind of experiment: In vitro DNA polymerase inhibition assay, Pb-apPOL. Format: biochemical. The conditions noted are these: Table 2. As to the method:
(§2) Codon-optimized, exonuclease-deficient Pf-apPOL was overexpressed in E. coli BL21 (DE3) and purified as described. The protein was dialysed against two, 1-liter changes of 20 mM Tris-HCl (pH 8.0), 400 mM NaCl, and 20% glycerol. Plasmodium bergei and Babesia bovis apPOLs (Pb-apPOL and Bb-apPOL, respectively) were codon-optimized, expressed, and purified as for Pf-apPOL[15]. Bacteriophage T4 DNA polymerase was purified as described. The DNA oligonucleotides used to make the high-throughput substrate were obtained from Integrated DNA Technologies. Deoxynucleotides were purchased from Strategene. All other materials came from Fisher Scientific.
The HT assay employs a molecular beacon, a stem-loop DNA template with a Cy3 dye and the Black Hole Quencher on the 3′ and 5′ ends of the DNA, respectively. Pf-apPOL concentration is based on a calculated absorptivity of ε280 = 56750 M^−1 cm^−1. Reactions were carried out at 25 °C, using Corning 3575 […] (well-volume, 20 µL). Assays testing for compound inhibition composed of reaction buffer (pH 7.9 in 50 mM potassium acetate, 20 mM Tris-acetate and 10 mM magnesium acetate), Pf-apPOL (20 nM), DNA substrate (20 nM), dNTPs (6 µM), and compound (10 µM in DMSO). The DNA and nucleotide substrates (dNTPs) were at concentrations of 20 nM and 6 µM, respectively, in the assay. Pf-apPOL was incubated in the reaction buffer with dNTPs and the compound of interest (10 µM, in the assay) at 25 °C for 10 min. The DNA substrate was then added and the reaction was allowed to proceed for 90 min at 25 °C.
In the above, Min is the average of fluorescence emission of the negative controls (substrate only), Max the average fluorescence emission from the positive controls (enzyme + substrate), and Test the emission from the assays in the presence of compounds (enzyme + compound + substrates). Dose-response confirmation assays were performed under similar conditions as the primary screen, but monitoring fluorescence at 10, 90, and 180 min. Tested concentrations of compounds were 2.5, 10, 20, 40, and 80 µM. The IC50 of each compound was determined using Equation (2): (2) […] Vmax/(1+ (I/IC50)^n)
We tested the ability of the 102 compounds to kill P. falciparum parasites cultured in human red blood cells. Due to the number of compounds, we used a single inhibitor concentration of 20 µM and performed experiments in triplicate. These single-dose assays identified 9 compounds that inhibited parasite growth by more than 50%. These compounds were then tested in a dose-response format against chloroquine resistant P. falciparum parasites (Dd2) and the resulting data were fit to a sigmoidal growth inhibition curve to determine EC50 values (Figure 5, Table 2). […] Inhibition of Pb-apPOL is a desired feature because it is likely that future in vivo studies will be performed in the mouse model for Malaria. […] The in vitro polymerase assays identified 5 compounds that were potent inhibitors of all three apicoplast polymerases and a single compound that inhibited Pf-apPOL and Bb-apPOL but not Pb-apPOL (Table 2). Finally, to determine if the compounds were killing the parasites solely via apicoplast disruption, the dose-response curves were also performed with 1 mM isopentylpyrophosphate (IPP) in the growth media (Table 2). […] At this time, it is unclear what the non-apicoplast target(s) may be. One intriguing possibility is that these compounds may be targeting both the apicoplast and the mitochondrial DNA polymerases. […]

The target of assay [3] is Babesia bovis apicoplast DNA polymerase (Bb-apPOL). As to the kind of experiment: In vitro DNA polymerase inhibition assay, Bb-apPOL. The conditions noted are these: Table 2. Type of assay: biochemical. As to the method:
as §2, §1

Setting [4] is: Dd2 parasites in human RBCs, dose-response, no IPP, read-out: EC50.
Where [5] appears, read: Dd2 parasites, 1 mM isopentylpyrophosphate (IPP) in the growth media, read-out: EC50 + IPP.

Where two headings read alike, the source gives them in different places.

Regarding `O=C(O)c1ccc(-c2nc3cc(-c4ccc5nc(-c6ccc(C(=O)O)cc6)[nH]c5c4)ccc3[nH]2)cc1` [Molecule 1], the EC50 was determined as 8.6 ± 0.4 µM in assay [1] (setting [4]) and 9.3 ± 0.5 µM in assay [1] (setting [5]). Moreover, the half-maximal inhibitory concentration (IC50) in assay [2] was 7.1 ± 0.6 µM; in assay [3], 3.7 ± 0.2 µM.

For the compound `CCOc1nc2cccc(C(=O)OC(C)OC(=O)OC3CCCCC3)c2n1Cc1ccc(-c2ccccc2-c2nnn[nH]2)cc1` (stereo not shown) [Molecule 94], the results for the EC50 in assay [1] (setting [4]) and in assay [1] (setting [5]) were 4.6 ± 0.2 µM and 3.7 ± 0.5 µM, respectively. For the same compound, the IC50 in assay [2] amounted to 13.9 ± 1.6 µM; in assay [3], 30 ± 3 µM.

Regarding `COc1ccc(CNC(=O)Cn2nc3c(c2NC(=O)Cc2cccs2)CSC3)cc1` [Molecule 55], the values for the EC50 in assay [1] (setting [4]) and in assay [1] (setting [5]) were 3.5 ± 0.3 µM and 4.3 ± 0.2 µM, respectively. Besides, the IC50 in assay [2] worked out at 51.9 ± 3.5 µM; in assay [3], 1.5 ± 1 µM.

For `OC(C#Cc1ccccc1)c1ccco1` (stereo not shown) [Molecule 95], the EC50 in assay [1] (setting [4]) was determined as 7.5 ± 0.5 µM; in assay [1] (setting [5]), 7.4 ± 0.4 µM. For the same compound, the results for the half-inhibitory concentration (IC50) in assay [2] and in assay [3] were 8.6 ± 0.7 µM and 2.5 ± 0.2 µM, respectively.

Broadly, the EC50 is the concentration giving half of the maximal effect. A word on the IC50: it is the point on the concentration scale where inhibition reaches its midpoint. Low values mean greater potency in that assay, high ones weaker potency in that assay.

These data come from PMC9090415, “Discovery of small molecule inhibitors of Plasmodium falciparum apicoplast DNA polymerase” (Journal of Enzyme Inhibition and Medicinal Chemistry, 2022).
